Values quoted from earlier work, collected in patent US8512794B2, “Oleate ester phytosterol compositions” (Perlman Consulting, LLC, priority 2010, dated 2013).

Tested on: humans

Row | Structure (SMILES) | lowering of serum cholesterol (12-18 g per day in divided doses, males with atherosclerosis (Faquhar et al. 1956)) | decrease of plasma cholesterol level (9-18 grams per day, coarse powdered form)
1 | CC[C@H](CC[C@@H](C)[C@H]1CC[C@H]2[C@@H]3CC=C4C[C@@H](O)CC[C@]4(C)[C@H]3CC[C@]12C)C(C)C [beta sitosterol] | 15-20% | 
2 | CC[C@H](CC[C@@H](C)[C@H]1CC[C@H]2[C@@H]3CC=C4C[C@@H](O)CC[C@]4(C)[C@H]3CC[C@]12C)C(C)C [sitosterol] |  | approximately 15%
